From patent publication US12090204B2, “Photodynamic therapy compositions and methods of use thereof” (Pinnacle Biologics, Inc., priority 2020, dated 2024)
“And” between values parts separate entries of the source, which are not always exact repeats. Equal values may be shown once.

How the values were obtained:
[1] = test system: S. aureus (+); experiment: porfimer sodium aPDT, planktonic culture; type: cell-based, Staphylococcus aureus; settings: 630 nm, 200 J/cm2, porfimer sodium 125 μg/mL
Description: (§1) Bacteria were routinely cultured using tryptic soy broth or agar at 37° C. in a 5% CO2 incubator. Bacteria were isolated and suspended with 0.9% NaCl to an Optical Density (OD) of 0.1 taken at 630 nm, to generate the inoculum used for either planktonic or biofilm assays.
(§2) Experiments using planktonic cultures were carried out using M. catarrhalis, as a standard for further comparisons and to determine the effective drug concentration, porfimer sodium incubation time and light dose parameters which would provide an effective cell kill at the level of 5-7 logs. Once determined the experiments were repeated for all other bacterial strains examined.
(§3) The colony forming units (CFU) per mL of the starting inoculum for every experiment was determined by dilution plating. […]
(§4) Bacteria were exposed to 630 nm laser light via a fiber optic with a lens affixed to the distal end to provide a uniform diverging light field. […] Power output of the laser was measured using a UDT/Gamma Scientific 371 optical power meter and an integrating sphere. […]
(§5) Biofilms were formed on glass coupons in culture dishes containing a bacterial inoculum for 48 hours under conditions specific to the strain. […] Power output of the laser was measured using a UDT/Gamma Scientific 371 optical power meter and an integrating sphere. […]

[2] = test system: E. coli (−); experiment: porfimer sodium aPDT, planktonic culture; type: cell-based, Escherichia coli; settings: 630 nm, 200 J/cm2, porfimer sodium 125 μg/mL
Description: as §1, §2, §3, §4, §5

[3] = test system: S. Mutans (+); experiment: porfimer sodium aPDT, planktonic culture; type: cell-based, Streptococcus Mutans; settings: 630 nm, 200 J/cm2, porfimer sodium 125 μg/mL
Description: as §1, §2, §3, §4, §5

[4] = test system: methicillin-resistant Staphylococcus aureus (MRSA), Staphylococcus aureus ATCC BAA 1768; experiment: partial thickness wound model, microbial load in wound swabs (Example 4); type: in vivo, Yorkshire pig; settings: for overall decrease of mean microbial load in wound swabs over the course of treatment (SD1 to SD3): untreated Group 2: 20-fold; for WOUND SWABS (CFU/mL) 24 hr. Post-Treat 2 / WOUND SWABS (CFU/mL) Immediately Post-Treat 2 / WOUND SWABS (CFU/mL) Pre-treat 2 / WOUND SWABS (CFU/mL) Pre-Treat 1: individual wounds; for WOUND SWABS (CFU/mL) Pre-Treat 1: 1.0 mg/mL
Description: Bacteria strains were obtained from ATCC (Manassas, VA). Bacteria were propagated from glycerol stock store at −80° C. A stab of the glycerol stock was used to inoculate 5 mL of trypticase soy broth. The cultures were incubated overnight at 37° C. with shaking at 250 rpm. The following day, a portion of overnight culture was used to prepare a streak plate onto an Oxacillin screen plate which was incubated overnight at 37° C. and single colony isolates of freshly plated bacteria were used to prepare bacterial inoculum. The morning of wounding an infection, a portion of overnight culture was used to inoculate 50 mL of trypticase soy broth and the newly inoculated media was incubated at 37° C. with shaking at 250 rpm until log phase growth was reached. The bacteria were pelleted by centrifugation at 4,000 rpm at 4° C. for 10 minutes in a Sorval tabletop centrifuge. The culture supernatant was discarded, and the bacterial pellets were suspended in a volume of sterile PBS to yield a concentration of 2×10^7 CFU/mL.
Wounds were swabbed with a sterile cotton tipped applicator in a serpentine motion starting at the upper left-hand margin of the wound and ending at the bottom right wound margin. A dry sterile cotton tipped applicator was used for all wounds. The swabs were placed into 14 mL falcon tubes containing 1 mL of sterile PBS. The tubes were vigorously vortexed and serial 10-fold dilutions of the PBS in the tubes containing the swabs were prepared. One hundred microliters of select dilutions for wound groups were plated onto agar plates. The plates were incubated at 35-37° C. and colonies enumerated manually. The data are reported as CFU/swab normalized to the volume of PBS in which the swabs were placed.
This study evaluated the ability of porfimer sodium to reduce/eliminate microbial colonization and biofilm from surgical sites in a partial thickness would healing model. The study was conducted in a single female Yorkshire pig over the course of five days. A dermatome was used to create 20 partial thickness wounds. Sixteen of the wounds were infected with methicillin-resistant Staphylococcus aureus (MRSA), and four were designated as uninfected controls. The wounds were bandaged and the bacterial biofilm allowed to develop for 48 hours.
Designated infected wounds were subjected to two courses of treatment with the test article at a periodicity of 24 hours. Article dose concentration of 1.0 mg/mL of porfimer sodium was prepared as described in Example 3, and used immediately, with the exception of two wounds (L6 and L7) where the test article (reconstituted porfimer sodium) was mixed 1:1 with NeilMed NasalGel.
Treatments consisted of application of the test article followed by photoactivation with one or two intensities of light, 150 J/cm^2 or 200 J/cm^2 (Table 3). Wounds were evaluated for microbial load prior to each course of treatment, immediately following the final treatment and 24 hours following the final treatment. Tissue specimens from infected and non-infected wounds were harvested for histology of biofilm formation at each treatment time point. Tissue specimens from treated wounds were harvested 24 hours following the final treatments for histology.

[5] = Group 4 (200 J/cm^2), N 3, without wounds L6, R5, R9

Substance: porfimer sodium
- Rate of kill [1]: >7Log
- Rate of kill [2]: <1Log
- Rate of kill [3]: >7Log
- Mean microbial load, Posttreat 2 (swab) ([4]; Group 3 (150 J/cm^2), N 6): 5.33E+03 CFU/swab
- Mean microbial load, Pretreat 1 (swab) ([4]; Group 3 (150 J/cm^2), N 6): 9.91E+05 CFU/swab
- Mean microbial load, Pretreat 2 (swab) ([4]; Group 3 (150 J/cm^2), N 6): 1.90E+05 CFU/swab
- additional decrease of mean microbial load in wound swabs following Treatment 2 ([4]; Group 3, 150 J/cm^2): 36 fold
- decrease of mean microbial load in wound swabs following treatment 1 (SD1 to SD2) ([4]; Group 3, 150 J/cm^2): 5.2 fold
- overall decrease of mean microbial load in wound swabs over the course of treatment (SD1 to SD3) ([4]; Group 3, 150 J/cm^2): 186 fold
- WOUND SWABS (CFU/mL) 24 hr. Post-Treat 2 ([4]; Group 3 = 150 J/cm2 treatment): 1.14E+04 CFU/mL and 1.17E+04 CFU/mL and 3.50E+02 CFU/mL and 2.65E+03 CFU/mL and 4.30E+03 CFU/mL
- WOUND SWABS (CFU/mL) Immediately Post-Treat 2 ([4]; Group 3 = 150 J/cm2 treatment): 1.92E+05 CFU/mL and 6.16E+03 CFU/mL
- WOUND SWABS (CFU/mL) Pre-treat 2 ([4]; Group 3 = 150 J/cm2 treatment): 8.80E+04 CFU/mL and 6.60E+05 CFU/mL and 2.74E+03 CFU/mL and 4.20E+04 CFU/mL and 3.45E+05 CFU/mL
- WOUND SWABS (CFU/mL) Pre-Treat 1 ([4]; Group 3 = 150 J/cm2 treatment): 6.30E+05 CFU/mL and 3.03E+06 CFU/mL and 2.88E+05 CFU/mL and 4.00E+03 CFU/mL and 5.40E+04 CFU/mL
- Mean microbial load, Posttreat 2 (swab) [4, 5]: 1.16E+03 CFU/swab
- Mean microbial load, Pretreat 1 (swab) [4, 5]: 8.53E+05 CFU/swab
- Mean microbial load, Pretreat 2 (swab) [4, 5]: 5.11E+05 CFU/swab
- additional decrease of mean microbial load in wound swabs following Treatment 2 ([4]; Group 4, 200 J/cm^2): 250 fold
- decrease of mean microbial load in wound swabs following treatment 1 (SD1 to SD2) ([4]; Group 4, 200 J/cm^2): 1.7 fold
- overall decrease of mean microbial load in wound swabs over the course of treatment (SD1 to SD3) ([4]; Group 4, 200 J/cm^2): 735 fold
- WOUND SWABS (CFU/mL) 24 hr. Post-Treat 2 ([4]; Group 4 = 200 J/cm2 treatment): 1.55E+03 CFU/mL and 1.79E+02 CFU/mL and 1.75E+03 CFU/mL and 3.15E+03 CFU/mL and 2.31E+02 CFU/mL
- WOUND SWABS (CFU/mL) Immediately Post-Treat 2 ([4]; Group 4 = 200 J/cm2 treatment): 4.20E+04 CFU/mL and 2.80E+04 CFU/mL
- WOUND SWABS (CFU/mL) Pre-treat 2 ([4]; Group 4 = 200 J/cm2 treatment): 1.40E+04 CFU/mL and 2.00E+04 CFU/mL and 1.50E+06 CFU/mL and 1.44E+06 CFU/mL and 7.60E+00 CFU/mL
- WOUND SWABS (CFU/mL) Pre-Treat 1 ([4]; Group 4 = 200 J/cm2 treatment): 2.42E+05 CFU/mL and 2.60E+04 CFU/mL and 2.29E+06 CFU/mL and 0.00E+00 CFU/mL (2×)
- consistency of results when applied directly to infected wounds ([4]; porfimer sodium mixed in saline): inconsistency in the results
